Test results from patent publication US6380262B1, “5-membered ring compounds” (Takara Shuzo Co., Ltd., priority 1998, dated 2002).
pIC50: −log10 of the molar value. Read-outs that look alike come from different tables or passages of the source. Numbered stars: 1 amine (or outer) side, 2 acyl side, 3 side chain; on linkers, the order of the positions; unused ones are H or OH. Bridge positions count the residues as written; N and C are the ends. Square brackets hold non-standard residues; d marks the D form. Peptide text beside a SMILES is read from it. I, II: the chains in the order shown. Actinocin(9to1) = Cc1c2oc3c(C)ccc(C(=O)[*:1])c3nc-2c(C(=O)[*:2])c(N)c1=O; NMeV = CN[C@H](C(=O)O)C(C)C; Sar = CNCC(=O)O

Legend:
[1] = single oral administration to a rat (death); assay type: in vivo; conditions: single dosage of 1000 mg/kg
Procedure: No toxicity is observed when a physiologically effective amount of the compound of the present invention or an optical isomer thereof, or a salt thereof is administered.

[2] = test system: human influenza virus A1/FM/1/47 (ATCC VR-97); test: therapeutic effect in mice infected with influenza virus; assay type: in vivo, BALB/c mice; conditions: control 4 out of 11 died
Procedure: (24) Therapeutic effects of cyclopentenone and 2-hydroxy-4-glutathion-S-yl-2-cyclopenten-1-one were examined by conducting experiments in which mice were infected with influenza virus.
Each of 4 weeks old female BALB/c mice was intranasally infected with 1×10^4 FFU of human influenza virus A1/FM/1/47 (ATCC VR-97) which had been propagated in a hen's egg.
Immediately after the infection with virus, single dose of 1 mg/kg of cyclopentenone, or 3 mg/kg or 30 mg/kg of 2-hydroxy-4-glutathion-S-yl-2-cyclopenten-1-one was intraperitoneally administered to the mouse infected with influenza virus.
Phosphate buffered saline was administered to control mice.
As a result, 4 out of 11 mice in the control group died by day 16. On the other hand, the numbers of dead mice were only 1 out of 11, 1 out of 11 and 1 out of 10 for the groups administered with 1 mg/kg of cyclopentenone, 3 mg/kg of 2-hydroxy-4-glutathion-S-yl-2-cyclopenten-1-one and 30 mg/kg of 2-hydroxy-4-glutathion-S-yl-2-cyclopenten-1-one, respectively.

HL-60 cells [3] = test: measurement of apoptotic cells using FACScan; assay type: cell-based, human; conditions: HL-60, 24 hours; actinomycin D 10 μl of 0.5 mg/ml in 5 ml
Procedure: (§1) (3) HL-60 cells were cultured at 37° C. in RPMI 1640 medium (Bio Whittaker) containing 10% fetal calf serum (JRH) which had been treated at 56° C. for 30 minutes and suspended in RPMI 1640 medium at a concentration of 2.5×10^5 cells/5 ml.
(§2) 10 μl of one of appropriate dilutions of the hexanoyl GM solutions in 20 mM Tris-HCl buffer or the di-t-butyl GD solution in 70% aqueous ethanol solution was added to 5 ml of the suspension. The mixtures were incubated at 37° C. for 24 hours in the presence of 5% CO2. 10 μl of aqueous actinomycin D (Sigma) solution (0.5 mg/ml), which is known as a reagent that induces apoptosis, was used in place of the sample and the mixture was incubated under the same conditions for confirmation.
(§3) Measurement of apoptotic cells using FACScan as described in Saibo Kogaku, Bessatsu (Cell Technology, Suppl.) Jikken Protocol Series: Apoptosis Jikken Protocol (Experimental Protocol Series: Experimental Protocols for Apoptosis) (Shujun-sha) pp. 129-130 and analysis of DNA fragmentation as described in Bio Manual UP Series: Saishin Apoptosis Jikken-ho (Bio Manual UP Series: Current Experimental Methods for Apoptosis) (Yodo-sha) pp. 61-63 were carried out using cells cultured in the same manner as that described above.

HL-60 cells [4] = test: analysis of DNA fragmentation; assay type: cell-based, human; conditions: HL-60, 24 hours; actinomycin D 10 μl of 0.5 mg/ml in 5 ml
Procedure: as §1, §2, §3

[5] = single oral administration to a mouse (death); assay type: in vivo; conditions: single dosage of 100 mg/kg
[6] = test system: HL-60 (ATCC CCL-240) cells; test: antiproliferation activity against tumor cells and apoptosis induction, MTT measurement system and optical microscope; assay type: cell-based, human; conditions: for induction of apoptosis (apoptosis corpuscles under an optical microscope): HL-60, 96-well plate culture
Procedure: (1) 100 μl of a suspension containing HL-60 (ATCC CCL-240) cells in RPMI-1640 medium (Nippon Suisan Kaisha) containing 10% fetal calf serum (Gibco) which had been treated at 56° C. for 30 minutes at a concentration of 5×10^4 cells/ml was dispensed into each well of a 96-well microtiter plate. 10 μl of one of 2-fold serial dilutions with water of 8.3 mM hexanoyl GM solution in 25 mM Tris-HCl buffer was added to the well of the plate. The plate was incubated at 37° C. for 48 hours in the presence of 5% CO2. After the cells were examined under an optical microscope, 10 μl of 5 mg/ml 3-(4,5-dimethylthiazol-2-yl)-2,5-diphenyltetrazolium bromide (MTT; Sigma) solution in phosphate buffered saline was added to the well. The plate was incubated for additional 4 hours. 100 μl of 2-propanol containing 0.04 N HCl was added to the well, the mixture was stirred, and the absorbance at 590 nm was measured.
(2) 10 μl of one of 2-fold serial dilutions with 70% aqueous ethanol solution of 19 mM di-t-butyl GD solution in 70% aqueous ethanol solution was added to each well of a 96-well microtiter plate and air-dried. 100 μl of HL-60 suspension was then dispensed as described above. An apoptosis-inducing activity and an antiproliferation activity against tumor cells were examined using a measurement system using MTT.

HL-60 cells [7] = test: viability by Trypan Blue staining (Viability50); assay type: cell-based; conditions: Homo sapiens, read-out: Viability50 (concentration that results in a viability of 50%)
Procedure: as §1, §2
Furthermore, a portion of the cells cultured for 24 hours as described above was stained with 0.4% Trypan Blue and examined under an optical microscope. The number of viable cells which were not stained and the number of dead cells which were stained blue were counted. The concentration of each of the samples that results in a viability of 50% (Viability50 μM) was determined. As a result, Viability50 for hexanoyl GM was 9.22 μM and that for di-t-butyl GD was 46.3 μM.

topoisomerase II = molecular target: T1, topoisomerase II (Homo sapiens, UniProt P11388); test: topoisomerase II inhibition, pBR322 DNA relaxation on agarose gel; assay type: biochemical
T1 construct: purchased TopoGEN
Procedure: (§4) (1) 2 μl of topoisomerase II (TopoGEN; 2 units/μl), 2 μl of 10-fold concentrated buffer [0.5 M Tris-HCl (pH 8.0), 1.2 M KCl, 0.1 M MgCl2, 5 mM adenosine triphosphate, 5 mM dithiothreitol], 2 μl of 0.1% bovine serum albumin (Takara Shuzo), 11 μl of distilled water and 2 μl of distilled water (control) or 2 μl of one solutions of hexanoyl GM adjusted to varying concentrations with water were mixed together. 1 μl of 0.25 μg/μl pBR322 DNA (Takara Shuzo) was added thereto. The resulting mixture was reacted at 37° C. After reacting for 30 minutes, 2 μl of an aqueous solution containing 1% sodium dodecyl sulfate, 50% glycerol and 0.02% Bromophenol Blue was added thereto to stop the reaction.
(§5) 20 μl of the reaction mixture was applied to 1% agarose gel prepared using agarose L03 (Takara Shuzo) and TAE buffer [40 mM Tris, 5 mM sodium acetate, 1 mM ethylenediaminetetraacetic acid disodium salt; adjusted to pH 7.8 using acetic acid] and electrophoresed in TAE buffer. After electrophoresis, the gel was soaked in a 1 μg/ml aqueous ethidium bromide solution. The gel was exposed to ultraviolet rays to visualize the electophoretic pattern of DNA.

topoisomerase I = molecular target: T2, topoisomerase I (Homo sapiens, UniProt P11387); test: topoisomerase I inhibition, pBR322 DNA relaxation on agarose gel; assay type: biochemical; conditions: topoisomerase I (TopoGEN), 37° C., 30 minutes
T2 construct: purchased TopoGEN
T2 sequence (P11387 1-765): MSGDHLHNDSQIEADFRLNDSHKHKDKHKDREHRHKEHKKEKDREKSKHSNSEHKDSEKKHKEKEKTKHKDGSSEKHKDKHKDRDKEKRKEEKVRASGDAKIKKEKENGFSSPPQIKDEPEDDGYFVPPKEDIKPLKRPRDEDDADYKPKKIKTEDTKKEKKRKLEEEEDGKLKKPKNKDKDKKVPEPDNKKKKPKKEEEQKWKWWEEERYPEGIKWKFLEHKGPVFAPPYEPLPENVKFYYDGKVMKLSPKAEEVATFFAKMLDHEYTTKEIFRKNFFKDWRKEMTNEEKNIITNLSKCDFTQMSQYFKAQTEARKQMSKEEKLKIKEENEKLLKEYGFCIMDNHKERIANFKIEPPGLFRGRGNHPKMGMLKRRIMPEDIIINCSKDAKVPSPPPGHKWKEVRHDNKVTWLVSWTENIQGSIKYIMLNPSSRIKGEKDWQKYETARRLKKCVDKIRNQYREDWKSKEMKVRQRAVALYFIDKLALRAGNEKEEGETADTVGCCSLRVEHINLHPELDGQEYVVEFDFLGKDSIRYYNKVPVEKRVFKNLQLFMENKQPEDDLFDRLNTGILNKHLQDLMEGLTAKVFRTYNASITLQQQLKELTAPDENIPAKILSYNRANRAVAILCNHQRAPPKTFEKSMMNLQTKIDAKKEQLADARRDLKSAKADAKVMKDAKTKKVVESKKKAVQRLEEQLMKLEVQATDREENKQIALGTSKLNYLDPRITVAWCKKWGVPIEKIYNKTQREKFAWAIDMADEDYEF
Procedure: as §4
as §5, with “The gel was exposed to ultraviolet rays to visualize the electophoretic pattern of DNA.” left out
(2) The activity of inhibiting topoisomerase I of hexanoyl GM was determined as described in Example 3-(1) except that topoisomerase I (TopoGEN; 0.01 unit/μl) was used in place of topoisomerase II and a solution containing 100 mM Tris-HCl (pH 7.9), 10 mM EDTA, 1 mM spermidine and 50% glycerol was used as 10-fold concentrated buffer.

T1 sequence (P11388 whole entry): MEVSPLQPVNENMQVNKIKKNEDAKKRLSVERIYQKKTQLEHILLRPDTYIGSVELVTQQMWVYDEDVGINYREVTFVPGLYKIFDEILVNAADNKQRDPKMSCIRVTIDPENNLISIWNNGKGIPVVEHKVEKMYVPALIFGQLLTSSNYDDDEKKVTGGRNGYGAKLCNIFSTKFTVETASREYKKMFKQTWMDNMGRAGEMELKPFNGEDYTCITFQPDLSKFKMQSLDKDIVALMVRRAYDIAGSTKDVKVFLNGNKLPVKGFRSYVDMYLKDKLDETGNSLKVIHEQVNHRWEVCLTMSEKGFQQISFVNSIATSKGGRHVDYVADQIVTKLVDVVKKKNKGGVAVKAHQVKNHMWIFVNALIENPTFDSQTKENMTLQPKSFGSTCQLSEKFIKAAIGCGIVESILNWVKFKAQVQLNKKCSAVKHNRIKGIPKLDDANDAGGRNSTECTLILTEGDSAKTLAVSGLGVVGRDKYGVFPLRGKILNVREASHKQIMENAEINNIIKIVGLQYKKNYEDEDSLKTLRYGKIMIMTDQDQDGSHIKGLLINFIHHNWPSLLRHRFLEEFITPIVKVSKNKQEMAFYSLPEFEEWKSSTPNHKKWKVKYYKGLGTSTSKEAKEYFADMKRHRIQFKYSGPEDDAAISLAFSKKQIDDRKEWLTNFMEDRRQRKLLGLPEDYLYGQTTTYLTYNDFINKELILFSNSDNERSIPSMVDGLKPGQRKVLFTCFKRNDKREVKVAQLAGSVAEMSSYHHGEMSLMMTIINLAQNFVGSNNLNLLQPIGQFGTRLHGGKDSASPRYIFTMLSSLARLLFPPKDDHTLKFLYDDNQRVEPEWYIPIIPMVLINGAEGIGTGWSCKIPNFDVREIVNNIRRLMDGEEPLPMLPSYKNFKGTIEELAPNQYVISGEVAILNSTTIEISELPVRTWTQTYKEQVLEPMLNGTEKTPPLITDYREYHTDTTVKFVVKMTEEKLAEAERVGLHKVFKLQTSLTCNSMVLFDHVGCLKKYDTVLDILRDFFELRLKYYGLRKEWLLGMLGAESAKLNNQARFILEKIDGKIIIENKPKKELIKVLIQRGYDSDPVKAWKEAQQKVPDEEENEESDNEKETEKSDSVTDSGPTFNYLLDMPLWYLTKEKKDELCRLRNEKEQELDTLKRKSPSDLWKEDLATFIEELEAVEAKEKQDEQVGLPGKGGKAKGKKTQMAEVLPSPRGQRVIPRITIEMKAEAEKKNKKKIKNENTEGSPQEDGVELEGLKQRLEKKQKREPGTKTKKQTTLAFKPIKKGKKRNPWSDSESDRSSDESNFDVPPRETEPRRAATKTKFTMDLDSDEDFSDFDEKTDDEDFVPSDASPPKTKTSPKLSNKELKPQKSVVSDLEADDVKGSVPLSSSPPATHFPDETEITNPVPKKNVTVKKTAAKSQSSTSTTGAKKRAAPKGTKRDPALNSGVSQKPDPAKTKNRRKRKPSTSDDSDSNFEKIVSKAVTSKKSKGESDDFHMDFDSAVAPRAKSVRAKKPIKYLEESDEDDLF

With `N[C@@H](CCC(=O)N[C@@H](CSC1C=C(O)C(=O)C1)C(=O)NCC(=O)O)C(=O)O` (stereo partly drawn) [2-hydroxy-4-glutathion-S-yl-2-cyclopenten-1-one] the “death after single oral administration” value [1] was “no death was observed”, the “number of dead mice by day 16” value ([2]; 3 mg/kg single intraperitoneal dose immediately after infection) was 1 out of 11 and the “number of dead mice by day 16” value ([2]; 30 mg/kg single intraperitoneal dose immediately after infection) was 1 out of 10.
In the case of `Cc1c2oc3c(C)ccc(C(=O)N[C@@H]4C(=O)N[C@H](C(C)C)C(=O)N5CCC[C@H]5C(=O)N(C)CC(=O)N(C)[C@@H](C(C)C)C(=O)O[C@@H]4C)c3nc-2c(C(=O)N[C@@H]2C(=O)N[C@H](C(C)C)C(=O)N3CCC[C@H]3C(=O)N(C)CC(=O)N(C)[C@@H](C(C)C)C(=O)O[C@@H]2C)c(N)c1=O` [actinomycin D] (I: T[dV]P[Sar][NMeV] / II: T[dV]P[Sar][NMeV]; ester I:1-I:C, II:1-II:C; linker I:N-II:N via Actinocin(9to1)), the “apoptotic cells (FACScan)” value (HL-60 cells [3]) was “observed” and the DNA fragmentation (HL-60 cells [4]) was “observed”.
With `O=C1C=CC(O)C1O` (stereo not drawn) [cyclopentenone, 4,5-dihydroxy-2-cyclopenten-1-one] the “death after single oral administration” value [5] was “No death was observed” and the “number of dead mice by day 16” value ([2]; 1 mg/kg single intraperitoneal dose immediately after infection) was 1 out of 11.
With `CC(C)(C)OC1C(=O)CC(SC[C@H](NC(=O)CC[C@H](N)C(=O)O)C(=O)NCC(=O)O)C1OC(C)(C)C` (stereo partly drawn) [di-t-butyl GD, 2,3-di-t-butoxy-4-glutathion-S-yl-1-cyclopentanone] the “death after single oral administration” value [1] was “no death was observed”, the “induction of apoptosis (apoptosis corpuscles under an optical microscope)” value [6] was “apoptosis corpuscles were observed” and the “final concentration down to which an antiproliferation activity against tumor cells was clearly exhibited” value ([6]; HL-60, MTT, 2-fold serial dilutions of 19 mM solution, air-dried in well) was at least 34 µM. The pIC50 (HL-60 cells [7]; HL-60, 24 h) was 4.33.
With `CCCCCC(=O)OC1=CC(SC[C@H](NC(=O)CC[C@H](N)C(=O)O)C(=O)NCC(=O)O)CC1=O` (stereo partly drawn) [hexanoyl GM, 2-hexanoyloxy-4-glutathion-S-yl-2-cyclopenten-1-one] the “death after single oral administration” value [1] was “no death was observed”, the “induction of apoptosis (apoptosis corpuscles under an optical microscope)” value [6] was “apoptosis corpuscles were observed” and the “final concentration down to which an antiproliferation activity against tumor cells was clearly exhibited” value ([6]; HL-60, 48 hours, MTT, 2-fold serial dilutions of 8.3 mM solution) was at least 6.25 pm. For the same compound, the pIC50 (HL-60 cells [7]; HL-60, 24 hours, 0.4% Trypan Blue) was 5.04, the “selectivity of inhibition, topoisomerase II as compared with topoisomerase I” value (topoisomerase II) was “selective inhibitory activity on topoisomerase II” and the “concentration at which change of DNA from superhelical type to relaxed type was partially or completely inhibited” value (topoisomerase II; topoisomerase II (TopoGEN), pBR322 DNA, 37° C., 30 minutes) was at least 100 µM. The “concentration at which change of DNA from superhelical type to relaxed type was partially inhibited” value (topoisomerase I) was at least 1000 µM.
